Test results published in publication doi:10.1101/2025.11.04.686469, “Discovery of Host-Directed Small Molecules with Broad Anti-Leishmanial Efficacy” (bioRxiv, 2025).

Tests used:
[1] = test system: intracellular L. donovani amastigotes; assay: Luminescent-based evaluation of intracellular anti-leishmanial activity in THP-1 macrophages; type: cell-based, Leishmania donovani; conditions: intracellular Leishmania donovani in THP1 macrophages, luminescence assay (Supplemental Table 2); read-out: Lum IC50
Summary of the method: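 PMA-differentiated THP-1 macrophages (150 nM, 72 h) were infected 18 h with firefly luciferase-expressing L. donovani LV82 promastigotes, then washed. Infected cells were treated with compounds at 0.1-10 μM for 72 h. Surviving intracellular amastigotes were quantified by firefly luciferase luminescence after cell lysis and 10 min substrate incubation at room temperature.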

THP-1 macrophages = assay: Effect of compounds on host cell viability (MTT); type: cell-based; conditions: read-out: 24h LC50; THP1 macrophages, 24-hour incubation, MTT assay (Supplemental Table 2)
Summary of the method: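 THP-1 cells were differentiated with 150 nM PMA for 72 h, then exposed to compounds at 1–50 μM for 24 h; selected compounds were also run at 1–300 μM for 72 h. MTT at 0.5 mg/mL was added for 2 h at 37 °C, and formazan absorbance was read at 560 nm minus 670 nm.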

| Structure (SMILES) | IC50 [1] [µM] | CC50 (THP-1 macrophages) [µM] |
| --- | --- | --- |
| CC(C)(C)OC(=O)N1CCC(Oc2ccc(-n3nc(C(F)(F)F)cc3-c3ccc(-c4ccc(C(F)(F)F)cc4)cc3)cc2)C1 (stereo not drawn) [Compound 142] | > 10 | > 50 |
| NCC(=O)Nc1ccc(-n2cnc3ccccc32)cc1 [Compound 150] | > 10 | > 50 |
| FC(F)(F)c1cc(C2CCCCC2)n(-c2ccc(NC3CCN(Cc4ccccc4)CC3)cc2)n1 [Compound 321] | 5.1 | 23.9 |
| CN(C)c1ccc(-c2cc(C(F)(F)F)nn2-c2ccc(Br)cc2)cc1 [Compound 214] | > 10 | > 50 |
| N#Cc1ccc(CN2CC(Nc3ccc(-n4nc(C(F)(F)F)cc4C4CCCCC4)cc3)C2)cc1 [Compound 397] | 8.1 | 27.6 |
| COC(=O)c1ccc(-n2cc(C(F)(F)F)nc2-c2ccc(-c3ccc(C(F)(F)F)cc3)cc2)c(F)c1 [Compound 175] | > 10 | > 50 |
| FC(F)(F)c1cc(-c2ccncc2)n(-c2ccc(Br)cc2)n1 [Compound 213] | > 10 | > 50 |
| O=[N+]([O-])c1ccc(-n2cnc3cc(Br)ccc32)cc1 [Compound 139] | > 10 | > 50 |
| NCC(=O)N1CC(Nc2ccc(-n3nc(C(F)(F)F)cc3-c3ccc(-c4ccc(C(F)(F)F)cc4)cc3)cc2)C1 [Compound 118] | 2.6 | 6.2 |
| NC1CCN(c2ccc(-n3nc(C(F)(F)F)cc3C3CCCCC3)cc2)CC1 [Compound 324] | 1.9 | 27.5 |
| FC(F)(F)c1ccc(-c2ccc(-c3cc(C(F)(F)F)nn3-c3ccc(NC4CCN(Cc5ccc(Cl)c(Cl)c5)CC4)cc3)cc2)cc1 [Compound 90] | > 10 | > 50 |
| CCCNC1CN(c2ccc(-n3nc(C(F)(F)F)cc3-c3ccc(-c4ccc(C(F)(F)F)cc4)cc3)cc2)C1 [Compound 54] | 2.4 | 9.9 |
| FC(F)(F)c1ccc(-c2cc(C(F)(F)F)nn2-c2ccc(NC3CCNC3)cc2)cc1 (stereo not drawn) [Compound 252] | 2.3 | 14.4 |
| FC(F)(F)c1cc(-c2ccc(-c3cccs3)cc2)n(-c2ccc(N3CCNCC3)cc2)n1 [Compound 209] | 3 | 10.2 |
| Fc1cccc(CN2CCC(Nc3ccc(-n4cc(C(F)(F)F)nc4-c4ccc(-c5ccc(C(F)(F)F)cc5)cc4)cc3)C2)c1 (stereo not drawn) [Compound 243] | > 10 | > 50 |
| CC(C)(C)OC(=O)NC1CCN(c2ccc(-n3nc(C4CCCCC4)cc3C(F)(F)F)cc2)C1 (stereo not drawn) [Compound 229] | 3.4 | 5 |
| FC(F)(F)c1cc(C2CCCCC2)n(-c2ccc(OC3CCN(Cc4ccccc4)CC3)cc2)n1 [Compound 371] | 8.9 | > 50 |
| Fc1cccc(CN2CCN(c3ccc(-n4nc(C(F)(F)F)cc4-c4ccc(-c5ccc(C(F)(F)F)cc5)cc4)cc3)CC2)c1 [Compound 222] | > 10 | > 50 |
| FC(F)(F)c1cc(-c2ccc(C3CC3)cc2)n(-c2ccc(N3CCNCC3)cc2)n1 [Compound 211] | 2.1 | 13.2 |
| CC(C)(C)c1ccc(-c2nc(C(F)(F)F)cn2-c2ccc([N+](=O)[O-])cc2)cc1 [Compound 146] | 4.4 | > 50 |
| CC(C)(C)c1cc(C(F)(F)F)nn1-c1ccc(Br)cc1 [Compound 201] | > 10 | > 50 |
| CC(C)(C)c1ccc(-c2nc(C(F)(F)F)cn2-c2ccc(NC(=O)CN)cc2)cc1 [Compound 157] | > 10 | 27.6 |
| NCC(=O)Nc1ccc(-n2cc(C(F)(F)F)nc2-c2ccc(C(F)(F)F)cc2)cc1 [Compound 409] | 8.8 | 35.2 |
| FC(F)(F)c1ccc(-c2ccc3ncn(-c4ccc(Br)cc4)c3c2)cc1 [Compound 136] | > 10 | > 50 |
| FC(F)(F)c1cn(-c2ccc(Br)cc2)c(-c2ccc(-c3ccccc3)cc2)n1 [Compound 81] | > 10 | > 50 |
| NCCN1CCC(Oc2ccc(-n3nc(C(F)(F)F)cc3C3CCCCC3)cc2)CC1 [Compound 416] | 1.3 | 18.2 |
| FC(F)(F)c1ccc(-c2ccc(-c3cc(C(F)(F)F)nn3-c3ccc(NC4CN(Cc5ccccc5)C4)cc3)cc2)cc1 [Compound 113] | > 10 | 19 |
| FC(F)(F)c1ccc(-c2ccc(-c3cc(C(F)(F)F)nn3-c3ccc(N4CC(NC5CCCC5)C4)cc3)cc2)cc1 [Compound 55] | 8.5 | 29.7 |
| CC(C)(C)OC(=O)NC1CCN(c2ccc(-n3nc(C(F)(F)F)cc3C(C)(C)C)cc2)C1 (stereo not drawn) [Compound 202] | 8.5 | > 50 |
| CC(C)(C)c1nc(C(F)(F)F)cn1-c1ccc(NC2CCNC2)cc1 (stereo not drawn) [Compound 330] | 6.2 | > 50 |
